Data: patent US7375083B2, “Pharmaceutical compositions for prevention of overdose or abuse” (Shire LLC, priority 2003, dated 2008)

What was measured:
[1] = tested on: Male Sprague-Dawley rats; test: Horizontal locomotor activity after oral administration; assay type: in vivo; settings: oral gavage, 6 mg/kg amphetamine equivalent
[2] = tested on: Male Sprague-Dawley rats; test: Locomotor activity after intranasal administration with and without CMC; assay type: in vivo
[3] = tested on: Male Sprague-Dawley rats; test: Locomotor activity after intravenous administration; assay type: in vivo
[4] = Oral pharmacokinetics in rats, plasma d-amphetamine by ELISA; settings: rat; oral; 60 mg/kg
[5] = tested on: Anesthetized Dog; test: Cardiovascular effects after intravenous bolus injection in anesthetized dogs
[6] = 1.0 mg/kg amphetamine equivalent, 1 h
[7] = 1.0 mg/kg, activity above baseline relative to d-amphetamine
[8] = 1.0 mg/kg amphetamine equivalent, 3 h

Structure (SMILES): C[C@H](N)Cc1ccccc1 [d-amphetamine, reference compound]
- Peak of activity (Counts per 0.2 h) ([1]; 5 Hours): 291 Counts per 0.2 h
- Time of Last Count Above 200 per 0.2 h ([1]; 5 Hours): 2.6 h
- Total Activity Counts ([1]; 5 Hours): 515 Counts
- Total Activity Counts Above Baseline ([1]; 5 Hours): 0 Counts
- Peak of activity (Counts per 0.2 h) ([1]; 12 Hours): 223 Counts per 0.2 h
- Time of Last Count Above 100 per 0.2 h ([1]; 12 Hours): 6.4 h
- Total Activity Counts ([1]; 12 Hours): 6622 Counts
- Total Activity Counts Above Baseline ([1]; 12 Hours): 5686 Counts
- Total Activity Counts (1 h) [2, 6]: 858 Counts
- Total Activity Counts Above Baseline [2, 6]: 686 Counts
- Percent d-amphetamine [2, 7]: 100%
- Total Activity Counts 3 h [3, 8]: 1659 Counts
- Total Activity Counts Above Baseline [3, 8]: 1355 Counts
- Percent d-amphetamine [3, 7]: 100%
- Animals that died or were sacrificed due to acute symptoms of toxicity [4]: 8 of 12
- DAP % Change from respective Time 0 ([5]; 0.202 mg/kg, TIME 0): 0%
- LVP % Change from respective Time 0 ([5]; 0.202 mg/kg, TIME 0): 0%
- MAP % Change from respective Time 0 ([5]; 0.202 mg/kg, TIME 0): 0%
- MAP - mean arterial pressure ([5]; 0.202 mg/kg, TIME 0): 84 mmHg
- SAP % Change from respective Time 0 ([5]; 0.202 mg/kg, TIME 0): 0%
- SAP - systolic arterial pressure ([5]; 0.202 mg/kg, TIME 0): 111 mmHg
- DAP % Change from respective Time 0 ([5]; 0.202 mg/kg, TIME 5): 117%
- LVP % Change from respective Time 0 ([5]; 0.202 mg/kg, TIME 5): 107%
- MAP % Change from respective Time 0 ([5]; 0.202 mg/kg, TIME 5): 109%
- MAP - mean arterial pressure ([5]; 0.202 mg/kg, TIME 5): 176 mmHg
- SAP % Change from respective Time 0 ([5]; 0.202 mg/kg, TIME 5): 97%
- SAP - systolic arterial pressure ([5]; 0.202 mg/kg, TIME 5): 218 mmHg
- DAP % Change from respective Time 0 ([5]; 0.202 mg/kg, TIME 15): 45%
- LVP % Change from respective Time 0 ([5]; 0.202 mg/kg, TIME 15): 52%
- MAP % Change from respective Time 0 ([5]; 0.202 mg/kg, TIME 15): 49%
- MAP - mean arterial pressure ([5]; 0.202 mg/kg, TIME 15): 125 mmHg
- SAP % Change from respective Time 0 ([5]; 0.202 mg/kg, TIME 15): 52%
- SAP - systolic arterial pressure ([5]; 0.202 mg/kg, TIME 15): 168 mmHg
- DAP % Change from respective Time 0 ([5]; 0.202 mg/kg, TIME 25): 30%
- LVP % Change from respective Time 0 ([5]; 0.202 mg/kg, TIME 25): 37%
- MAP % Change from respective Time 0 ([5]; 0.202 mg/kg, TIME 25): 31%
- MAP - mean arterial pressure ([5]; 0.202 mg/kg, TIME 25): 110 mmHg
- SAP % Change from respective Time 0 ([5]; 0.202 mg/kg, TIME 25): 34%
- SAP - systolic arterial pressure ([5]; 0.202 mg/kg, TIME 25): 148 mmHg
- DAP % Change from respective Time 0 ([5]; 0.202 mg/kg, TIME 30): 20%
- LVP % Change from respective Time 0 ([5]; 0.202 mg/kg, TIME 30): 30%
- MAP % Change from respective Time 0 ([5]; 0.202 mg/kg, TIME 30): 23%
- MAP - mean arterial pressure ([5]; 0.202 mg/kg, TIME 30): 103 mmHg
- SAP % Change from respective Time 0 ([5]; 0.202 mg/kg, TIME 30): 26%
- SAP - systolic arterial pressure ([5]; 0.202 mg/kg, TIME 30): 140 mmHg
- DAP % Change from respective Time 0 ([5]; 0.404 mg/kg, TIME 0): 0%
- LVP % Change from respective Time 0 ([5]; 0.404 mg/kg, TIME 0): 0%
- MAP % Change from respective Time 0 ([5]; 0.404 mg/kg, TIME 0): 0%
- MAP - mean arterial pressure ([5]; 0.404 mg/kg, TIME 0): 101 mmHg
- SAP % Change from respective Time 0 ([5]; 0.404 mg/kg, TIME 0): 0%
- SAP - systolic arterial pressure ([5]; 0.404 mg/kg, TIME 0): 139 mmHg
- DAP % Change from respective Time 0 ([5]; 0.404 mg/kg, TIME 5): 88%
- LVP % Change from respective Time 0 ([5]; 0.404 mg/kg, TIME 5): 79%
- MAP % Change from respective Time 0 ([5]; 0.404 mg/kg, TIME 5): 85%
- MAP - mean arterial pressure ([5]; 0.404 mg/kg, TIME 5): 187 mmHg
- SAP % Change from respective Time 0 ([5]; 0.404 mg/kg, TIME 5): 73%
- SAP - systolic arterial pressure ([5]; 0.404 mg/kg, TIME 5): 240 mmHg
- DAP % Change from respective Time 0 ([5]; 0.404 mg/kg, TIME 15): 44%
- LVP % Change from respective Time 0 ([5]; 0.404 mg/kg, TIME 15): 43%
- MAP % Change from respective Time 0 ([5]; 0.404 mg/kg, TIME 15): 43%
- MAP - mean arterial pressure ([5]; 0.404 mg/kg, TIME 15): 145 mmHg
- SAP % Change from respective Time 0 ([5]; 0.404 mg/kg, TIME 15): 39%
- SAP - systolic arterial pressure ([5]; 0.404 mg/kg, TIME 15): 193 mmHg
- DAP % Change from respective Time 0 ([5]; 0.404 mg/kg, TIME 25): 17%
- LVP % Change from respective Time 0 ([5]; 0.404 mg/kg, TIME 25): 26%
- MAP % Change from respective Time 0 ([5]; 0.404 mg/kg, TIME 25): 20%
- MAP - mean arterial pressure ([5]; 0.404 mg/kg, TIME 25): 122 mmHg
- SAP % Change from respective Time 0 ([5]; 0.404 mg/kg, TIME 25): 19%
- SAP - systolic arterial pressure ([5]; 0.404 mg/kg, TIME 25): 166 mmHg
- DAP % Change from respective Time 0 ([5]; 0.404 mg/kg, TIME 30): 11%
- LVP % Change from respective Time 0 ([5]; 0.404 mg/kg, TIME 30): 22%
- MAP % Change from respective Time 0 ([5]; 0.404 mg/kg, TIME 30): 16%
- MAP - mean arterial pressure ([5]; 0.404 mg/kg, TIME 30): 117 mmHg
- SAP % Change from respective Time 0 ([5]; 0.404 mg/kg, TIME 30): 16%
- SAP - systolic arterial pressure ([5]; 0.404 mg/kg, TIME 30): 160 mmHg
- DAP % Change from respective Time 0 ([5]; 2.02 mg/kg, TIME 0): 0%
- LVP % Change from respective Time 0 ([5]; 2.02 mg/kg, TIME 0): 0%
- MAP % Change from respective Time 0 ([5]; 2.02 mg/kg, TIME 0): 0%
- MAP - mean arterial pressure ([5]; 2.02 mg/kg, TIME 0): 115 mmHg
- SAP % Change from respective Time 0 ([5]; 2.02 mg/kg, TIME 0): 0%
- SAP - systolic arterial pressure ([5]; 2.02 mg/kg, TIME 0): 158 mmHg
- DAP % Change from respective Time 0 ([5]; 2.02 mg/kg, TIME 5): 48%
- LVP % Change from respective Time 0 ([5]; 2.02 mg/kg, TIME 5): 40%
- MAP % Change from respective Time 0 ([5]; 2.02 mg/kg, TIME 5): 47%
- MAP - mean arterial pressure ([5]; 2.02 mg/kg, TIME 5): 169 mmHg
- SAP % Change from respective Time 0 ([5]; 2.02 mg/kg, TIME 5): 44%
- SAP - systolic arterial pressure ([5]; 2.02 mg/kg, TIME 5): 228 mmHg
- DAP % Change from respective Time 0 ([5]; 2.02 mg/kg, TIME 15): 23%
- LVP % Change from respective Time 0 ([5]; 2.02 mg/kg, TIME 15): 24%
- MAP % Change from respective Time 0 ([5]; 2.02 mg/kg, TIME 15): 23%
- MAP - mean arterial pressure ([5]; 2.02 mg/kg, TIME 15): 142 mmHg
- SAP % Change from respective Time 0 ([5]; 2.02 mg/kg, TIME 15): 24%
- SAP - systolic arterial pressure ([5]; 2.02 mg/kg, TIME 15): 196 mmHg
- DAP % Change from respective Time 0 ([5]; 2.02 mg/kg, TIME 25): 17%
- LVP % Change from respective Time 0 ([5]; 2.02 mg/kg, TIME 25): 19%
- MAP % Change from respective Time 0 ([5]; 2.02 mg/kg, TIME 25): 17%
- MAP - mean arterial pressure ([5]; 2.02 mg/kg, TIME 25): 135 mmHg
- SAP % Change from respective Time 0 ([5]; 2.02 mg/kg, TIME 25): 20%
- SAP - systolic arterial pressure ([5]; 2.02 mg/kg, TIME 25): 189 mmHg
- DAP % Change from respective Time 0 ([5]; 2.02 mg/kg, TIME 30): 13%
- LVP % Change from respective Time 0 ([5]; 2.02 mg/kg, TIME 30): 16%
- MAP % Change from respective Time 0 ([5]; 2.02 mg/kg, TIME 30): 12%
- MAP - mean arterial pressure ([5]; 2.02 mg/kg, TIME 30): 129 mmHg
- SAP % Change from respective Time 0 ([5]; 2.02 mg/kg, TIME 30): 16%
- SAP - systolic arterial pressure ([5]; 2.02 mg/kg, TIME 30): 183 mmHg
- Effect on mean blood pressure after the first (lowest) dose ([5]; dog, IV bolus, 0.202 mg/kg d-amphetamine, equimolar to 0.5 mg/kg L-lysine-d-amphetamine): acute doubling of the mean BP
